From ChEMBL document CHEMBL4706476, “Novel Tetrahydropyrido[4,3-d]pyrimidines as Potent Inhibitors of Chaperone Heat Shock Protein 90” (J Med Chem, 2016)
Values after ≈ are worked out from the molar mass of the structure shown.

Tests used:
[1] = Distribution coefficient, logD of compound at pH 7.4; type: physicochemical; settings: octanol/water
[2] = Selectivity ratio of IC50 for inhibition of FITC-geldanamycin binding to N-terminal GRP94 (unknown origin) to IC50 for inhibition of FITC-geldanamycin binding to N-terminal HSP90alpha (unknown origin)
[3] = Intrinsic aqueous solubility of the compound; type: physicochemical
[4] = target: Heat shock protein HSP 90-alpha (Homo sapiens, UniProt P07900); assay: Displacement of FITC-geldanamycin from N-terminal HSP90alpha (unknown origin) after 30 mins by fluorescence polarization competitive binding assay
HCT-116 = assay: cells; settings: Homo sapiens, HCT-116, 72 h
Description: Antiproliferative activity against human HCT-116 cells assessed as reduction in cell viability incubated for 72 hrs by MTT assay

Endoplasmin = Endoplasmin (Homo sapiens, UniProt P14625); assay: Displacement of FITC-geldanamycin from N-terminal GRP94 (unknown origin) after 30 mins by fluorescence polarization competitive binding assay
MCF7 = assay: cells; settings: Homo sapiens, MCF7, 72 h
[5] = Permeability of the compound at pH 7.4 by PAMPA; type: ADME; settings: read-out: permeability

Endoplasmin, sequence (P14625 whole entry): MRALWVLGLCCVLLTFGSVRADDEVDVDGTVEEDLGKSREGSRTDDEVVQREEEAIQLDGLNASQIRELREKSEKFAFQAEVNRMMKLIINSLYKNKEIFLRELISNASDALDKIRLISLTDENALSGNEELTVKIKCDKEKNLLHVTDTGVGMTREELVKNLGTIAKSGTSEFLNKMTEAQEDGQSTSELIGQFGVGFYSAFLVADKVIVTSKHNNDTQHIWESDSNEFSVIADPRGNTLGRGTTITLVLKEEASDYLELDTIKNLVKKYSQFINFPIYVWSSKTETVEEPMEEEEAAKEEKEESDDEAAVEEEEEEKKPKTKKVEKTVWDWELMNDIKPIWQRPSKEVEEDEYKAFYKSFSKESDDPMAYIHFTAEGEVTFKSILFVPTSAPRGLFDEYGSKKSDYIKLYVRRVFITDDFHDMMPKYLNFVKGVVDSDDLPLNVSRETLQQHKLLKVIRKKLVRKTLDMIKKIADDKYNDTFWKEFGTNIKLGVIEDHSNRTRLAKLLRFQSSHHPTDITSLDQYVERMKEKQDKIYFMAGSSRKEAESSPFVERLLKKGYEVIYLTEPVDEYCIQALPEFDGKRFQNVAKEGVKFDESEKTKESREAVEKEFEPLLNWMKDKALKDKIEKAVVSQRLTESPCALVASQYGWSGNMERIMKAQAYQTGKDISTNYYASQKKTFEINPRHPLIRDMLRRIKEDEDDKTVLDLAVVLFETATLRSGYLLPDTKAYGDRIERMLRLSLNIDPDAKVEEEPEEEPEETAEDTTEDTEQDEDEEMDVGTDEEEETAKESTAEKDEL

SMILES	logD [1]	Ratio IC50 [2]	solubility [3] [µg/mL]	IC50 [4] [nM]	IC50 (HCT-116) [nM]	IC50 (Endoplasmin) [nM]	IC50 (MCF7) [nM]	Papp [5] [×10⁻⁶ cm/s]
CNc1nc(OCCOC)nc2c1CN(C(=O)c1cc(C(C)C)c(O)cc1O)CC2	2.21	11.5	178 (≈ 427 µM)	17	270	196	290	57.5
Cc1ncc2c(n1)CN(C(=O)c1cc(Br)c(O)cc1O)C2				262	1550		3720	
CCCNc1ncc2c(n1)CCN(C(=O)c1cc(C(C)C)c(O)cc1O)C2				238	2340		2370	
CCN(CC)c1ncc2c(n1)CCN(C(=O)c1cc(C(C)C)c(O)cc1O)C2				201	4420		2160	
CCOc1nc(OCCOC)nc2c1CN(C(=O)c1cc(C(C)C)c(O)cc1O)CC2	2.74	23.4	86.1 (≈ 200 µM)	26	320	608	180	77.3
COCCOc1nc2c(c(OC(C)C)n1)CN(C(=O)c1cc(C(C)C)c(O)cc1O)CC2	3.84	22.7	40.2 (≈ 90.2 µM)	58	740	1320	250	79.4
CC(C)c1cc(C(=O)N2CCc3nc(OC4CCN(C)CC4)ncc3C2)c(O)cc1O				76	1700		1790	
CC(C)c1cc(C(=O)N2CCc3nc(OC4CCOCC4)ncc3C2)c(O)cc1O				56	600		820	
CC(C)c1cc(C(=O)N2CCc3nc(OCCN4CCOCC4)ncc3C2)c(O)cc1O	1.48		140 (≈ 316 µM)	28	1060		1230	30.2
CCN(CC)c1nc(OCCOC)nc2c1CN(C(=O)c1cc(C(C)C)c(O)cc1O)CC2	3.08	10.8	95.9 (≈ 209 µM)	102	3570	1100	2890	107
COCCOc1nc2c(c(OC)n1)CN(C(=O)c1cc(C(C)C)c(O)cc1O)CC2	2.56	7.7	93.5 (≈ 224 µM)	30	250	232	140	75.8
CCN(CC)CCOc1ncc2c(n1)CCN(C(=O)c1cc(C(C)C)c(O)cc1O)C2	1.17	6.8	151 (≈ 353 µM)	32	890	217	2900	25.7
CC(C)c1cc(C(=O)N2CCc3nc(N4CCN(C)CC4)ncc3C2)c(O)cc1O				271	1710		2180	
COCCOc1nc2c(c(NC(C)C)n1)CN(C(=O)c1cc(C(C)C)c(O)cc1O)CC2	2.98	26.2	137 (≈ 309 µM)	30	790	787	250	62.4
CC(C)Nc1ncc2c(n1)CCN(C(=O)c1cc(C(C)C)c(O)cc1O)C2				222	2430		2680	
Cc1ncc2c(n1)CCN(C(=O)c1cc(Cl)c(O)cc1O)C2				101				
CCOc1ncc2c(n1)CCN(C(=O)c1cc(C(C)C)c(O)cc1O)C2	2.95	10	66 (≈ 185 µM)	56	760	561	620	72.4
Cc1ncc2c(n1)CN(C(=O)c1cc(C(C)C)c(O)cc1O)C2		1.3		38	1630	50	2140	27
CC(=O)N1CCN(c2ncc3c(n2)CCN(C(=O)c2cc(C(C)C)c(O)cc2O)C3)CC1				270	1600		3620	
COCCOc1nc2c(c(N(C)C)n1)CN(C(=O)c1cc(C(C)C)c(O)cc1O)CC2	2.35	12.2	153 (≈ 355 µM)	16	260	195	330	83
CC(C)c1cc(C(=O)N2CCc3nc(N4CCCC4)ncc3C2)c(O)cc1O				113	1140		4550	
CCCCOc1ncc2c(n1)CCN(C(=O)c1cc(C(C)C)c(O)cc1O)C2		7.6		88	1270	670	880	
Cc1ncc2c(n1)CN(C(=O)c1cc(Cl)c(O)cc1O)C2				474	10700		5480	

SMILES	logD [1]	Ratio IC50 [2]	solubility [3] [µg/mL]	IC50 [4] [nM]	IC50 (HCT-116) [nM]	IC50 (Endoplasmin) [nM]	IC50 (MCF7) [nM]	Papp [5] [×10⁻⁶ cm/s]
COc1ncc2c(n1)CCN(C(=O)c1cc(C(C)C)c(O)cc1O)C2		6.6		75	1160	498	630	
CC(C)c1cc(C(=O)N2CCc3nc(N4CCCCC4)ncc3C2)c(O)cc1O				172	1550		4460	
CC(C)c1cc(C(=O)N2CCc3nc(N4CCOCC4)ncc3C2)c(O)cc1O				110	1470		1820	
CC(C)c1cc(C(=O)N2CCc3nc(OC4CCCC4)ncc3C2)c(O)cc1O				71	1720		1190	
CC(C)c1cc(C(=O)N2CCc3nc(N(C)C)ncc3C2)c(O)cc1O				164	1020		1390	
COCCOc1nc2c(c(NC3CC3)n1)CN(C(=O)c1cc(C(C)C)c(O)cc1O)CC2	2.45	11.4	157 (≈ 355 µM)	19	230	216	160	56.4
Cc1ncc2c(n1)CCN(C(=O)c1cc(Br)c(O)cc1O)C2				132	1530		1730	
CCCN(CCC)c1ncc2c(n1)CCN(C(=O)c1cc(C(C)C)c(O)cc1O)C2				370	5700		3090	
CC(C)Oc1ncc2c(n1)CCN(C(=O)c1cc(C(C)C)c(O)cc1O)C2		8		65	1240	518	960	
CC(C)c1cc(C(=O)N2CCc3nc(OCCN(C)C)ncc3C2)c(O)cc1O	1.04	9.7	148 (≈ 370 µM)	30	2380	290	1580	3.25
CNc1ncc2c(n1)CCN(C(=O)c1cc(C(C)C)c(O)cc1O)C2				113	740		1250	
CC(C)c1cc(C(=O)N2CCc3nc(OCCN4CCCCC4)ncc3C2)c(O)cc1O	1.21		175 (≈ 396 µM)	30	780		2330	20.5
CCCCN(CCCC)c1ncc2c(n1)CCN(C(=O)c1cc(C(C)C)c(O)cc1O)C2				343	1290		1120	
CCCOc1ncc2c(n1)CCN(C(=O)c1cc(C(C)C)c(O)cc1O)C2		8.3		60	1080	498	1340	
CC(C)c1cc(C(=O)N2CCc3nc(OC4CCCCC4)ncc3C2)c(O)cc1O				103	2780		1870	
CCNc1ncc2c(n1)CCN(C(=O)c1cc(C(C)C)c(O)cc1O)C2				167	1560		1580	
CC(C)COc1ncc2c(n1)CCN(C(=O)c1cc(C(C)C)c(O)cc1O)C2		10.9		65	1230	706	1330	
CCCNc1nc(OCCOC)nc2c1CN(C(=O)c1cc(C(C)C)c(O)cc1O)CC2	2.92	24.9	114 (≈ 257 µM)	32	400	796	350	78.7
CC(C)c1cc(C(=O)N2CCc3nc(OCCN4CCCC4)ncc3C2)c(O)cc1O	1.12		146 (≈ 341 µM)	29	980		1930	3.06
Cc1ncc2c(n1)CCN(C(=O)c1cc(C(C)C)c(O)cc1O)C2		9.4		26	1150	245	1480	33.3
CC(C)c1cc(C(=O)N2CCc3nc(OCCCN(C)C)ncc3C2)c(O)cc1O	1.09		156 (≈ 375 µM)	36	920		2370	4.15
CCN1CCN(c2ncc3c(n2)CCN(C(=O)c2cc(C(C)C)c(O)cc2O)C3)CC1				191	1650		1430	
